One block for each molecule: values may come before it. Starred links: 1 amine or outer side, 2 acyl side, 3 side chain; linkers in the order of their positions; H or OH if unused. Non-standard residues stand in square brackets, D forms with d. Residues, ends and D or L forms follow the SMILES beside them. Groups on a side chain read outwards from the residue. *: point of attachment. C20 diacid = O=C(O)CCCCCCCCCCCCCCCCCCC(=O)*; C18 diacid = O=C(O)CCCCCCCCCCCCCCCCC(=O)*; γGlu = O=C(O)[C@H](CCC(=O)[*:2])N[*:1]; αMeF = C[C@](N)(Cc1ccccc1)C(=O)O; AEEA = NCCOCCOCC(=O)O; Aib = CC(C)(N)C(=O)O
How the values were obtained:
[1] = biological target: T1, human glucagon receptor (hGCGR) (Homo sapiens, UniProt P47871); assay: cAMP production (HTRF) in CHO cells expressing human glucagon receptor; type: cell-based; conditions: Table 6, modification at position 17, CHO cells expressing hGCGR, geometric mean, read-out: hGluc-R EC50
T1 construct: expressed in transfected cells; host or cells: CHO
T1 sequence (P47871 26-477): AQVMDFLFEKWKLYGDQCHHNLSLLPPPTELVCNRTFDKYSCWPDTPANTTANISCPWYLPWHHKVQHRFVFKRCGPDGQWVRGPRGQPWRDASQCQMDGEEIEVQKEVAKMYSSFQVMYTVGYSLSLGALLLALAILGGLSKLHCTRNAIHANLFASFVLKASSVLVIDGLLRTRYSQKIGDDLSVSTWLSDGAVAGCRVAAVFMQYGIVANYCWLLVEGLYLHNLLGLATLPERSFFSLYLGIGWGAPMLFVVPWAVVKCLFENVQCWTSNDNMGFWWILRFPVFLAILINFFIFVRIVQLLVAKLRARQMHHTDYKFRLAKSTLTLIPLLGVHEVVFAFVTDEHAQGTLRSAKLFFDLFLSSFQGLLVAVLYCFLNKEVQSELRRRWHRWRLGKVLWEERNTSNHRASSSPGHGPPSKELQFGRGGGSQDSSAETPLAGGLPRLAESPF
Description: Cells were re-suspended in assay buffer at a batch-dependent optimized concentration (typically hGLP-1R cells at 1×10^5 cells/mL, hGCGR cells at 2×10^5 cells/mL).
Cells were added to the assay plate using a multidrop dispenser and incubated at room temperature for 30 minutes before measuring the cAMP level using a cAMP dynamic 2 homogeneous time resolved Fluorescence (HTRF) kit (Cisbio Bioassays #62AM4PEJ) following the two-step protocol as per manufacturer's recommendations. In brief, anti-cAMP cryptate (donor fluorophore) and cAMP-d2 (acceptor fluorophore) were made up separately by diluting each 1 in 20 in conjugate and lysis buffer provided in the kit. Anti-cAMP cryptate was added to all wells of the assay plate, followed by cAMP-d2 added to all wells except non-specific binding (NSB) wells (to which conjugate and lysis buffer was added).
Data was transformed to % Delta F as described in the manufacturer's guidelines and analyzed by 4-parameter logistic fit to determine EC50 values.

[2] = biological target: T2, human GLP-1 receptor (hGLP-1R) (Homo sapiens, UniProt P43220); assay: cAMP production (HTRF) in CHO cells expressing human GLP-1 receptor; type: cell-based; conditions: % GLP-1R activity relative to GLP-1 / % GlucR activity relative to glucagon
T2 construct: expressed in transfected cells; host or cells: CHO
T2 sequence (P43220 24-463): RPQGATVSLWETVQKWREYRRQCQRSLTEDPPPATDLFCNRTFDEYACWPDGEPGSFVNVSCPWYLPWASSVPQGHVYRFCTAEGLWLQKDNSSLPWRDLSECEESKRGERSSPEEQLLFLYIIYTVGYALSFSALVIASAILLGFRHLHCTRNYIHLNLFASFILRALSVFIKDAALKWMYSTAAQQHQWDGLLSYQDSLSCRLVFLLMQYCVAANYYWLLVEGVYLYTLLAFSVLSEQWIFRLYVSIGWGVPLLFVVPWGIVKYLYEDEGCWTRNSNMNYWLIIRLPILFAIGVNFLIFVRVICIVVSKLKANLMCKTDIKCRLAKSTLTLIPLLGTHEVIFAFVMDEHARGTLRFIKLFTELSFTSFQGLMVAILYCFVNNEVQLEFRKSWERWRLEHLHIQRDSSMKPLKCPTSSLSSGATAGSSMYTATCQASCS

Molecule: CC[C@H](C)[C@H](NC(=O)[C@H](Cc1c[nH]c2ccccc12)NC(=O)[C@H](CCCCNC(=O)COCCOCCNC(=O)COCCOCCNC(=O)CC[C@H](NC(=O)CCCCCCCCCCCCCCCCC(=O)O)C(=O)O)NC(=O)[C@@H](NC(=O)[C@](C)(Cc1ccccc1)NC(=O)[C@H](CC(=O)O)NC(=O)[C@H](CCC(N)=O)NC(=O)[C@H](C)NC(=O)[C@H](C)NC(=O)[C@H](CCC(N)=O)NC(=O)[C@H](CO)NC(=O)[C@H](CC(=O)O)NC(=O)[C@H](CC(C)C)NC(=O)[C@](C)(Cc1ccccc1)NC(=O)[C@H](CCCCN)NC(=O)[C@H](CO)NC(=O)[C@@H](NC(=O)[C@H](CC(=O)O)NC(=O)[C@H](CO)NC(=O)[C@@H](NC(=O)[C@](C)(Cc1ccccc1)NC(=O)[C@H](CO)NC(=O)CNC(=O)[C@H](Cc1c[nH]cn1)NC(=O)C(C)(C)NC(=O)[C@@H](N)Cc1c[nH]cn1)[C@@H](C)O)C(C)C)C(C)C)C(=O)N[C@@H](C)C(=O)N[C@@H](CC(N)=O)C(=O)N[C@H](C(N)=O)[C@@H](C)O [Peptide 370] (H-H[Aib]HGS[αMeF]TSDVSK[αMeF]LDSQAAQD[αMeF]VK([AEEA-AEEA-γGlu-C18 diacid])WIANT-NH2; N-terminus assumed)
% Relative Potency Ratio ([2]; Table 8): 1.1

Molecule: H(Aib)HGS(αMePhe)TSDK(O2OC-O2OC-γE-γE-C20diacid)10SK(αMePhe)LDSRAAQD(αMePhe)VQ(Aib)IANT-amide [Peptide 391]
% Relative Potency Ratio ([2]; Table 9): 49.1

Molecule: CC(C)C[C@H](NC(=O)[C@H](Cc1c[nH]c2ccccc12)NC(=O)[C@H](CCC(N)=O)NC(=O)[C@@H](NC(=O)[C@H](Cc1ccccc1)NC(=O)[C@H](CC(=O)O)NC(=O)[C@H](CCCNC(=N)N)NC(=O)[C@H](C)NC(=O)[C@H](CCCNC(=N)N)NC(=O)[C@H](CCCCNC(=O)COCCOCCNC(=O)COCCOCCNC(=O)CC[C@H](NC(=O)CCCCCCCCCCCCCCCCC(=O)O)C(=O)O)NC(=O)[C@@H](NC(=O)[C@H](CCC(=O)O)NC(=O)[C@H](CC(C)C)NC(=O)[C@](C)(Cc1ccccc1)NC(=O)[C@H](CCCCN)NC(=O)[C@H](CO)NC(=O)[C@@H](NC(=O)[C@H](CC(=O)O)NC(=O)[C@H](CO)NC(=O)[C@@H](NC(=O)[C@H](Cc1ccccc1)NC(=O)[C@@H](NC(=O)CNC(=O)[C@H](CCC(N)=O)NC(=O)C(C)(C)NC(=O)[C@@H](N)Cc1c[nH]cn1)[C@@H](C)O)[C@@H](C)O)C(C)C)[C@@H](C)O)C(C)C)C(=O)N[C@@H](CC(C)C)C(=O)N[C@@H](CCC(=O)O)C(=O)NC(C)(C)C(=O)NCC(=O)O [Peptide 445] (H-H[Aib]QGTFTSDVSK[αMeF]LETK([AEEA-AEEA-γGlu-C18 diacid])RARDFVQWLLE[Aib]G-OH; N-terminus assumed)
% Relative Potency Ratio ([2]; Table 6): 41.0

Molecule: HSQGS(αMePhe)TSDK((PEG)2-(PEG)2-γE-γE-Stearoyl)10SK(Dip)LDS(ß-dimethylArg)AAQD(αMePhe)VE(Aib)LANT-amide [Peptide 393]
% Relative Potency Ratio ([2]; Table 9): 9.3

Molecule: CC[C@H](C)[C@H](NC(=O)[C@H](Cc1c[nH]c2ccccc12)NC(=O)[C@H](CCCCNC(=O)COCCOCCNC(=O)COCCOCCNC(=O)CC[C@H](NC(=O)CCCCCCCCCCCCCCCCC(=O)O)C(=O)O)NC(=O)[C@@H](NC(=O)[C@H](Cc1ccccc1)NC(=O)[C@H](CC(=O)O)NC(=O)[C@H](CCC(N)=O)NC(=O)[C@H](C)NC(=O)[C@H](C)NC(=O)[C@H](CCC(N)=O)NC(=O)[C@H](CO)NC(=O)[C@H](CC(=O)O)NC(=O)[C@H](CC(C)C)NC(=O)[C@](C)(Cc1ccccc1)NC(=O)[C@H](CCCCN)NC(=O)[C@H](CO)NC(=O)[C@@H](NC(=O)[C@H](CC(=O)O)NC(=O)[C@H](CO)NC(=O)[C@@H](NC(=O)[C@](C)(Cc1ccccc1)NC(=O)[C@H](CO)NC(=O)CNC(=O)[C@H](CCC(N)=O)NC(=O)C(C)(C)NC(=O)[C@@H](N)Cc1c[nH]cn1)[C@@H](C)O)C(C)C)C(C)C)C(=O)N[C@@H](C)C(=O)N[C@@H](CC(N)=O)C(=O)N[C@H](C(N)=O)[C@@H](C)O [Peptide 348] (H-H[Aib]QGS[αMeF]TSDVSK[αMeF]LDSQAAQDFVK([AEEA-AEEA-γGlu-C18 diacid])WIANT-NH2; N-terminus assumed)
% Relative Potency Ratio ([2]; Table 8): 116.0

Molecule: CC[C@H](C)[C@H](NC(=O)[C@H](Cc1c[nH]c2ccccc12)NC(=O)[C@H](CCCCNC(=O)COCCOCCNC(=O)COCCOCCNC(=O)CC[C@H](NC(=O)CCCCCCCCCCCCCCCCC(=O)O)C(=O)O)NC(=O)[C@@H](NC(=O)[C@H](Cc1ccccc1)NC(=O)[C@H](CC(=O)O)NC(=O)[C@H](CCC(N)=O)NC(=O)[C@H](C)NC(=O)[C@H](C)NC(=O)[C@H](CCC(N)=O)NC(=O)[C@H](CO)NC(=O)[C@H](CC(=O)O)NC(=O)[C@H](CC(C)C)NC(=O)[C@](C)(Cc1ccccc1)NC(=O)[C@H](CCCCN)NC(=O)[C@H](CO)NC(=O)[C@@H](NC(=O)[C@H](CC(=O)O)NC(=O)[C@H](CO)NC(=O)[C@@H](NC(=O)[C@](C)(Cc1ccccc1)NC(=O)[C@H](CO)NC(=O)CNC(=O)[C@@H](NC(=O)C(C)(C)NC(=O)[C@@H](N)Cc1c[nH]cn1)[C@@H](C)CC)[C@@H](C)O)C(C)C)C(C)C)C(=O)N[C@@H](C)C(=O)N[C@@H](CC(N)=O)C(=O)N[C@H](C(N)=O)[C@@H](C)O [Peptide 358] (H-H[Aib]IGS[αMeF]TSDVSK[αMeF]LDSQAAQDFVK([AEEA-AEEA-γGlu-C18 diacid])WIANT-NH2; N-terminus assumed)
% Relative Potency Ratio ([2]; Table 8): 424.1

Continued, values first:

EC50 [1]: 0.702 nM
Molecule: CC(C)C[C@H](NC(=O)[C@H](Cc1c[nH]c2ccccc12)NC(=O)[C@H](CCCNC(=N)N)NC(=O)[C@@H](NC(=O)[C@H](Cc1ccccc1)NC(=O)[C@H](CC(=O)O)NC(=O)[C@H](CCCNC(=N)N)NC(=O)[C@H](C)NC(=O)[C@H](CCCNC(=N)N)NC(=O)[C@H](CCCCNC(=O)CC[C@H](NC(=O)CC[C@H](NC(=O)COCCOCCNC(=O)COCCOCCNC(=O)CC[C@H](NC(=O)CC[C@H](NC(=O)CCCCCCCCCCCCCCCCC(=O)O)C(=O)O)C(=O)O)C(=O)O)C(=O)O)NC(=O)[C@H](CO)NC(=O)[C@H](CC(=O)O)NC(=O)[C@H](CC(C)C)NC(=O)[C@](C)(Cc1ccccc1)NC(=O)[C@H](CCCCN)NC(=O)[C@H](CO)NC(=O)[C@@H](NC(=O)[C@H](CC(=O)O)NC(=O)[C@H](CO)NC(=O)[C@@H](NC(=O)[C@H](Cc1ccccc1)NC(=O)[C@@H](NC(=O)CNC(=O)[C@H](CCC(N)=O)NC(=O)C(C)(C)NC(=O)[C@@H](N)Cc1c[nH]cn1)[C@@H](C)O)[C@@H](C)O)C(C)C)C(C)C)C(=O)N[C@@H](CC(C)C)C(=O)N[C@@H](CCC(=O)O)C(=O)NC(C)(C)C(=O)NCC(=O)O [Peptide 144] (H-H[Aib]QGTFTSDVSK[αMeF]LDSK([γGlu-γGlu-AEEA-AEEA-γGlu-γGlu-C18 diacid])RARDFVRWLLE[Aib]G-OH; N-terminus assumed)

% Relative Potency Ratio ([2]; Table 8): 2.0
Molecule: CC[C@H](C)[C@H](NC(=O)[C@H](CO)NC(=O)[C@H](CCCCNC(=O)COCCOCCNC(=O)COCCOCCNC(=O)CC[C@H](NC(=O)CC[C@H](NC(=O)CCCCCCCCCCCCCCCCC(=O)O)C(=O)O)C(=O)O)NC(=O)[C@@H](NC(=O)[C@](C)(Cc1ccccc1)NC(=O)[C@H](CC(=O)O)NC(=O)[C@H](CCC(N)=O)NC(=O)[C@H](C)NC(=O)[C@H](C)NC(=O)[C@H](CCCNC(=N)N)NC(=O)[C@H](CO)NC(=O)[C@H](CC(=O)O)NC(=O)[C@H](CC(C)C)NC(=O)[C@](C)(Cc1ccccc1)NC(=O)[C@H](CCCCN)NC(=O)[C@H](CO)NC(=O)[C@@H](NC(=O)[C@H](CC(=O)O)NC(=O)[C@H](CO)NC(=O)[C@@H](NC(=O)[C@](C)(Cc1ccccc1)NC(=O)[C@H](CO)NC(=O)CNC(=O)[C@H](Cc1c[nH]cn1)NC(=O)C(C)(C)NC(=O)[C@@H](N)Cc1c[nH]cn1)[C@@H](C)O)C(C)C)C(C)C)C(=O)N[C@@H](C)C(=O)N[C@@H](CC(N)=O)C(=O)N[C@H](C(N)=O)[C@@H](C)O [Peptide 378] (H-H[Aib]HGS[αMeF]TSDVSK[αMeF]LDSRAAQD[αMeF]VK([AEEA-AEEA-γGlu-γGlu-C18 diacid])SIANT-NH2; N-terminus assumed)

% Relative Potency Ratio ([2]; Table 10): 16.7
Molecule: HSQGS(αMePhe)TSDVSKK((PEG)2-(PEG)2-γE-VE-Palmitoyl)13LDS(B-dimethylArg)AAQD(aMePhe)VE(Aib)LANT-amide [Peptide 400]

% Relative Potency Ratio ([2]; Table 10): 31.6
Molecule: H(Aib)HGS(αMePhe)TSDVSKK(O2OC-O2OC-γE-C18diacid)13LDSRAAQD(αMePhe)VQ(Aib)IANT-amide [Peptide 406]

% Relative Potency Ratio ([2]; Table 8): 2.5
Molecule: CC[C@H](C)[C@H](NC(=O)[C@H](Cc1c[nH]c2ccccc12)NC(=O)[C@H](CCCCNC(=O)COCCOCCNC(=O)COCCOCCNC(=O)CC[C@H](NC(=O)CC[C@H](NC(=O)CCCCCCCCCCCCCCCCCCC(=O)O)C(=O)O)C(=O)O)NC(=O)[C@@H](NC(=O)[C@H](Cc1ccccc1)NC(=O)[C@H](CC(=O)O)NC(=O)[C@H](CCC(N)=O)NC(=O)[C@H](C)NC(=O)[C@H](C)NC(=O)[C@H](CCCNC(=N)N)NC(=O)[C@H](CO)NC(=O)[C@H](CC(=O)O)NC(=O)[C@H](CC(C)C)NC(=O)[C@](C)(Cc1ccccc1)NC(=O)[C@H](CCCCN)NC(=O)[C@H](CO)NC(=O)[C@@H](NC(=O)[C@H](CC(=O)O)NC(=O)[C@H](CO)NC(=O)[C@@H](NC(=O)[C@](C)(Cc1ccccc1)NC(=O)[C@H](CO)NC(=O)CNC(=O)[C@H](Cc1c[nH]cn1)NC(=O)C(C)(C)NC(=O)[C@@H](N)Cc1c[nH]cn1)[C@@H](C)O)C(C)C)C(C)C)C(=O)N[C@@H](C)C(=O)N[C@@H](CC(N)=O)C(=O)N[C@H](C(N)=O)[C@@H](C)O [Peptide 377] (H-H[Aib]HGS[αMeF]TSDVSK[αMeF]LDSRAAQDFVK([AEEA-AEEA-γGlu-γGlu-C20 diacid])WIANT-NH2)

Source: patent publication US12630600B2 (MEDIMMUNE LIMITED, priority 2022, dated 2026)
